# Experiments:
# [1] = system: GLXMAW (Soybean, Williams); assay: Postemergence herbicidal evaluation; format: in vivo, Glycine max, (L.) Merr. cv Williams; conditions: postemergence
# Outline: (§1)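 Each compound, dispersed in an acetone/water mix (50/50) carrying 0.5% TWEEN 20, is nozzle-sprayed at 40 psi on approximately two-week-old seedlings at about 0.0156–0.500 kg/ha. Plants are assessed 4–5 weeks afterward on a 0–9 scale relative to control; duplicate tests are averaged.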
# [2] = system: CHEAL (Lambsquarters, Common); assay: Postemergence herbicidal evaluation; format: in vivo, Chenopodium album; conditions: postemergence
# Outline: as §1
# SETVI (Foxtail, Green) [3] = assay: Preemergence herbicidal evaluation; format: in vivo, Setaria viridis; conditions: rated 4-5 weeks after treatment
# Outline: (§2)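 Steps: mix seeds into potting soil; plant atop ~1 inch soil; spray compound in aqueous acetone (~0.0156-0.500 kg/ha equivalent); maintain in greenhouse with watering; rate visually 0-9 versus control at 4-5 weeks.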
# ABUTH (Velvetleaf) = assay: Preemergence herbicidal evaluation; format: in vivo, Abutilon theophrasti; conditions: rated 4-5 weeks after treatment
# Outline: as §2
# AMBEL (Ragweed, Common) [4] = assay: Postemergence herbicidal evaluation; format: in vivo, Ambrosia artemisifolia; conditions: postemergence
# Outline: as §1
# CASOB (Sicklepod) = assay: Preemergence herbicidal evaluation; format: in vivo, Cassia obtusifolia; conditions: rated 4-5 weeks after treatment
# Outline: as §2
# [5] = system: IPOHE (Morningglory, Ivyleaf); assay: Preemergence herbicidal evaluation; format: in vivo, Ipomoea hederacea; conditions: rated 4-5 weeks after treatment
# Outline: as §2
# AMBEL (Ragweed, Common) [6] = assay: Preemergence herbicidal evaluation; format: in vivo, Ambrosia artemisifolia; conditions: rated 4-5 weeks after treatment
# Outline: as §2
# SETVI (Foxtail, Green) [7] = assay: Postemergence herbicidal evaluation; format: in vivo, Setaria viridis; conditions: postemergence
# Outline: as §1
# ECHCG (Barnyardgrass) = assay: Preemergence herbicidal evaluation; format: in vivo, Echinochloa crus-galli; conditions: rated 4-5 weeks after treatment
# Outline: as §2
# CYPIR (Rice Flatsedge) = assay: Preemergence weed control under flooded paddy conditions; format: in vivo, Cyperus iria; conditions: rated 3-4 weeks after treatment
# Outline: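 First, seeds or propagules go into the top 0.5 cm of silt loam; next, water is held 1.5 to 3 cm over the soil; then compound (50/50 acetone/water) is pipetted into it at about 0.0313 to 0.500 kg/ha; finally plants are rated visually 0-9 after three to four weeks.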
# ORYSAT (Rice, Tebonnet) = assay: Postemergence herbicidal evaluation; format: in vivo, Oryza sativa, (L.) Tebonnet; conditions: postemergence
# Outline: as §1
# [8] = system: IPOHE (Morningglory, Ivyleaf); assay: Postemergence herbicidal evaluation; format: in vivo, Ipomoea hederacea; conditions: postemergence
# Outline: as §1
# GALAP (Galium) = assay: Preemergence herbicidal evaluation; format: in vivo, Galium aparine; conditions: rated 4-5 weeks after treatment
# Outline: as §2
# [9] = system: CHEAL (Lambsquarters, Common); assay: Preemergence herbicidal evaluation; format: in vivo, Chenopodium album; conditions: rated 4-5 weeks after treatment
# Outline: as §2
# ZEAMX (Corn, Field) = assay: Preemergence herbicidal evaluation; format: in vivo, Zea mays; conditions: rated 4-5 weeks after treatment
# Outline: as §2
smiles,measurement,setting,value
"C#CCOC(=O)CN1C(=O)CSC1=Nc1cc(-n2c(=O)cc(C(F)(F)F)n(C)c2=O)c(F)cc1Cl [Compound 115, 2-Propynyl 2-{{2-chloro-5-[3,6-dihydro-3-methyl-2,6-dioxo-4-(trifluoromethyl)-1(2H)-pyrimidinyl]-4-fluorophenyl}imino}-4-oxo-3-thiazolidineacetate]",Herbicidal rating GLXMAW,[1]; rate 0.0158 kg/ha,5.0
same,Herbicidal rating GLXMAW,[1]; rate 0.0315 kg/ha,5.0
same,Herbicidal rating GLXMAW,[1]; rate 0.0630 kg/ha,5.0
same,Herbicidal rating CHEAL,[2]; rate 0.0158 kg/ha,0.0
same,Herbicidal rating CHEAL,[2]; rate 0.0315 kg/ha,1.0
same,Herbicidal rating CHEAL,[2]; rate 0.0630 kg/ha,4.0
same,Preemergence herbicidal rating SETVI,"SETVI (Foxtail, Green) [3]; rate 0.0156 kg/ha",1.0
same,Preemergence herbicidal rating SETVI,"SETVI (Foxtail, Green) [3]; rate 0.0313 kg/ha",0.0
same,Preemergence herbicidal rating SETVI,"SETVI (Foxtail, Green) [3]; rate 0.0625 kg/ha",0.0
same,Preemergence herbicidal rating SETVI,"SETVI (Foxtail, Green) [3]; rate 0.1250 kg/ha",0.0
same,Preemergence herbicidal rating SETVI,"SETVI (Foxtail, Green) [3]; rate 0.2500 kg/ha",4.0
same,Preemergence herbicidal rating ABUTH,ABUTH (Velvetleaf); rate 0.0156 kg/ha,0.0
same,Preemergence herbicidal rating ABUTH,ABUTH (Velvetleaf); rate 0.0313 kg/ha,0.0
same,Preemergence herbicidal rating ABUTH,ABUTH (Velvetleaf); rate 0.0625 kg/ha,0.0
same,Preemergence herbicidal rating ABUTH,ABUTH (Velvetleaf); rate 0.1250 kg/ha,9.0
same,Preemergence herbicidal rating ABUTH,ABUTH (Velvetleaf); rate 0.2500 kg/ha,9.0
same,Herbicidal rating AMBEL,"AMBEL (Ragweed, Common) [4]; rate 0.0158 kg/ha",1.0
same,Herbicidal rating AMBEL,"AMBEL (Ragweed, Common) [4]; rate 0.0315 kg/ha",6.0
same,Herbicidal rating AMBEL,"AMBEL (Ragweed, Common) [4]; rate 0.0630 kg/ha",7.0
same,Preemergence herbicidal rating CASOB,CASOB (Sicklepod); rate 0.0156 kg/ha,2.0
same,Preemergence herbicidal rating CASOB,CASOB (Sicklepod); rate 0.0625 kg/ha,0.0
same,Preemergence herbicidal rating CASOB,CASOB (Sicklepod); rate 0.1250 kg/ha,4.0
same,Preemergence herbicidal rating CASOB,CASOB (Sicklepod); rate 0.2500 kg/ha,2.0
same,Preemergence herbicidal rating IPOHE,[5]; rate 0.0156 kg/ha,0.0
same,Preemergence herbicidal rating IPOHE,[5]; rate 0.0313 kg/ha,0.0
same,Preemergence herbicidal rating IPOHE,[5]; rate 0.0625 kg/ha,0.0
same,Preemergence herbicidal rating IPOHE,[5]; rate 0.1250 kg/ha,2.0
same,Preemergence herbicidal rating IPOHE,[5]; rate 0.2500 kg/ha,7.0
same,Preemergence herbicidal rating AMBEL,"AMBEL (Ragweed, Common) [6]; rate 0.0156 kg/ha",0.0
same,Preemergence herbicidal rating AMBEL,"AMBEL (Ragweed, Common) [6]; rate 0.0313 kg/ha",0.0
same,Preemergence herbicidal rating AMBEL,"AMBEL (Ragweed, Common) [6]; rate 0.0625 kg/ha",0.0
same,Preemergence herbicidal rating AMBEL,"AMBEL (Ragweed, Common) [6]; rate 0.1250 kg/ha",0.0
same,Preemergence herbicidal rating AMBEL,"AMBEL (Ragweed, Common) [6]; rate 0.2500 kg/ha",1.0
same,Herbicidal rating SETVI,"SETVI (Foxtail, Green) [7]; rate 0.0158 kg/ha",0.0
same,Herbicidal rating SETVI,"SETVI (Foxtail, Green) [7]; rate 0.0315 kg/ha",4.0
same,Herbicidal rating SETVI,"SETVI (Foxtail, Green) [7]; rate 0.0630 kg/ha",9.0
same,Preemergence herbicidal rating ECHCG,ECHCG (Barnyardgrass); rate 0.0156 kg/ha,0.0
same,Preemergence herbicidal rating ECHCG,ECHCG (Barnyardgrass); rate 0.0313 kg/ha,0.0
same,Preemergence herbicidal rating ECHCG,ECHCG (Barnyardgrass); rate 0.0625 kg/ha,0.0
same,Preemergence herbicidal rating ECHCG,ECHCG (Barnyardgrass); rate 0.1250 kg/ha,0.0
same,Preemergence herbicidal rating ECHCG,ECHCG (Barnyardgrass); rate 0.2500 kg/ha,0.0
same,CYPIR herbicidal effect rating,CYPIR (Rice Flatsedge); 0.0313 kg/ha,5.0
same,CYPIR herbicidal effect rating,CYPIR (Rice Flatsedge); 0.0625 kg/ha,6.0
same,CYPIR herbicidal effect rating,CYPIR (Rice Flatsedge); 0.1250 kg/ha,9.0
same,CYPIR herbicidal effect rating,CYPIR (Rice Flatsedge); 0.2500 kg/ha,9.0
same,Herbicidal rating ORYSAT,"ORYSAT (Rice, Tebonnet); rate 0.0158 kg/ha",1.5
same,Herbicidal rating ORYSAT,"ORYSAT (Rice, Tebonnet); rate 0.0315 kg/ha",2.0
same,Herbicidal rating ORYSAT,"ORYSAT (Rice, Tebonnet); rate 0.0630 kg/ha",2.5
same,Herbicidal rating IPOHE,[8]; rate 0.0158 kg/ha,9.0
same,Herbicidal rating IPOHE,[8]; rate 0.0315 kg/ha,9.0
same,Herbicidal rating IPOHE,[8]; rate 0.0630 kg/ha,9.0
same,Preemergence herbicidal rating GALAP,GALAP (Galium); rate 0.0156 kg/ha,1.0
same,Preemergence herbicidal rating GALAP,GALAP (Galium); rate 0.0313 kg/ha,3.0
same,Preemergence herbicidal rating GALAP,GALAP (Galium); rate 0.0625 kg/ha,3.0
same,Preemergence herbicidal rating GALAP,GALAP (Galium); rate 0.1250 kg/ha,7.0
same,Preemergence herbicidal rating GALAP,GALAP (Galium); rate 0.2500 kg/ha,9.0
same,Preemergence herbicidal rating CHEAL,[9]; rate 0.0313 kg/ha,5.0
same,Preemergence herbicidal rating CHEAL,[9]; rate 0.0625 kg/ha,7.0
same,Preemergence herbicidal rating CHEAL,[9]; rate 0.1250 kg/ha,9.0
same,Preemergence herbicidal rating CHEAL,[9]; rate 0.2500 kg/ha,9.0
same,Preemergence herbicidal rating ZEAMX,"ZEAMX (Corn, Field); rate 0.0156 kg/ha",0.0
same,Preemergence herbicidal rating ZEAMX,"ZEAMX (Corn, Field); rate 0.0313 kg/ha",0.0
same,Preemergence herbicidal rating ZEAMX,"ZEAMX (Corn, Field); rate 0.0625 kg/ha",0.0
same,Preemergence herbicidal rating ZEAMX,"ZEAMX (Corn, Field); rate 0.1250 kg/ha",1.0
same,Preemergence herbicidal rating ZEAMX,"ZEAMX (Corn, Field); rate 0.2500 kg/ha",2.0
